Test systems include CCRF-CEM leukemia; NCI/ADR-RES ovarian; SNB-75 CNS; MDA-N; MDA-MB-435; SN12C renal; MALME-3M melanoma; A549 NSCLC; NCI-H23 lung; 786-0 renal; NCI-H226 lung; MOLT-4 leukemia; IGROV1 ovarian; SW-620 colon; HL-60(TB) leukemia; PC-3 prostate; COLO 205 colon; NCI-H522 lung; HT29 colon; LOX IMVI melanoma.
Assay in all cases: growth of human tumour cells (NCI), 48 h

Molecules are shown by their SMILES.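 Compound exposure: 48 hours, 5 concentrations, 96-well plates. Definition used: TGI = concentration required for complete inhibition of growth.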 Some results are limits rather than exact numbers.

In the case of `C/C=C/[C@H]1O[C@@](O)([C@@H](C)[C@H](O)[C@H](C)[C@H]2OC(=O)/C(OC)=C/C(C)=C/[C@@H](C)[C@@H](O)[C@@H](CC)[C@@H](O)[C@H](C)C/C(C)=C/C=C/[C@@H]2OC)C[C@H](OC2CC(O)C(O)C(C)O2)[C@@H]1C` (stereo partly drawn), the TGI was less than 0.0075 µM in the assay with CCRF-CEM leukemia; 17.8 µM in the assay on NCI/ADR-RES ovarian; 46 µM in the assay with SNB-75 CNS; 12.2 µM in the assay with MDA-N; 8.87 µM in the assay with MDA-MB-435; 18.1 µM in the assay with SN12C renal. The TGI in the assay on MALME-3M melanoma is 0.907 µM; with A549 NSCLC it was 12.3 µM; in the assay on NCI-H23 lung, 17.5 µM; in the assay on 786-0 renal, 2.92 µM; in the assay with NCI-H226 lung, 11.7 µM; with MOLT-4 leukemia, less than 0.0075 µM. Further, the TGI with IGROV1 ovarian is 17 µM; with SW-620 colon, 10.4 µM; with HL-60(TB) leukemia, less than 0.0075 µM; in the assay on PC-3 prostate, 9.48 µM; in the assay on COLO 205 colon, 3.96 µM; in the assay with NCI-H522 lung, 1.48 µM. Besides, in the assay with HT29 colon, the TGI stood at 8.03 µM.

Regarding `C=CCOC(=O)N1[C@H]2C#C/C=C\C#C[C@]3(O)C(=O)C[C@H](C)[C@]24O[C@]43C2=CC(=O)C=CC21OC` (stereo partly drawn), the TGI in the assay with CCRF-CEM leukemia is 79.5 µM; in the assay on NCI/ADR-RES ovarian it was greater than 100 µM; in the assay with SNB-75 CNS, 82.5 µM; with MDA-N it was greater than 100 µM; in the assay on MDA-MB-435, greater than 100 µM; in the assay on SN12C renal, 67.4 µM. Further, the TGI in the assay on MALME-3M melanoma was greater than 100 µM; with A549 NSCLC, greater than 100 µM; with NCI-H23 lung, greater than 100 µM; in the assay with 786-0 renal it was 38.7 µM; in the assay on NCI-H226 lung, greater than 100 µM; with MOLT-4 leukemia, 52.9 µM. Besides, the TGI was 67.3 µM in the assay with IGROV1 ovarian; greater than 100 µM in the assay with SW-620 colon; 92.8 µM with HL-60(TB) leukemia; greater than 100 µM in the assay with PC-3 prostate; 38.8 µM in the assay on COLO 205 colon; 48.5 µM in the assay on NCI-H522 lung. Besides, the TGI in the assay on HT29 colon turned out to be 75.2 µM.

Take `Cc1c(NC(=S)NN)c(=O)n(-c2ccccc2)n1C`: the TGI in the assay on CCRF-CEM leukemia, in the assay with NCI/ADR-RES ovarian, in the assay on SNB-75 CNS, in the assay on MDA-N, in the assay with MDA-MB-435 and with SN12C renal was greater than 100 µM throughout. The TGI in the assay with MALME-3M melanoma, in the assay with A549 NSCLC, in the assay with 786-0 renal, in the assay on NCI-H226 lung, in the assay with MOLT-4 leukemia and with IGROV1 ovarian was greater than 100 µM throughout. The TGI in the assay on LOX IMVI melanoma, in the assay on SW-620 colon, with HL-60(TB) leukemia, with PC-3 prostate, in the assay with COLO 205 colon and with NCI-H522 lung was greater than 100 µM in each case. The same compound showed a TGI in the assay on HT29 colon greater than 100 µM.

`COc1cc(Cc2cc3c(c(C(=O)O)c2Br)OCO3)cc(OC)c1OC`: the TGI with CCRF-CEM leukemia is greater than 100 µM; in the assay with NCI/ADR-RES ovarian it was greater than 100 µM; in the assay on SNB-75 CNS, greater than 100 µM; with MDA-N, 67 µM; in the assay on MDA-MB-435 it was greater than 100 µM; in the assay on SN12C renal, greater than 100 µM. Also, the TGI in the assay on MALME-3M melanoma, in the assay with A549 NSCLC, in the assay on NCI-H23 lung, in the assay on 786-0 renal, in the assay with NCI-H226 lung and with MOLT-4 leukemia was greater than 100 µM each time. Also, the TGI with IGROV1 ovarian was greater than 100 µM; with LOX IMVI melanoma, greater than 100 µM; in the assay on SW-620 colon it was greater than 100 µM; in the assay on HL-60(TB) leukemia, 62.2 µM; in the assay with PC-3 prostate, greater than 100 µM; with COLO 205 colon, greater than 100 µM. In addition, the TGI in the assay with HT29 colon was greater than 100 µM.

For `CN(C)c1ccc(/C=c2/c3ccccc3n3c2c2ccccc2[n+]3C)cc1`, the TGI in the assay with CCRF-CEM leukemia turned out to be 1.23 µM; with NCI/ADR-RES ovarian it was 32.8 µM; in the assay on SNB-75 CNS, 8.29 µM; in the assay with MDA-N it was 1.89 µM; with MDA-MB-435 it was 1.87 µM; with SN12C renal it was 2.55 µM. For the same compound, the TGI in the assay with MALME-3M melanoma stood at 1.47 µM; with A549 NSCLC it was 19.7 µM; in the assay with NCI-H23 lung it was 3.45 µM; with 786-0 renal, 1.69 µM; with NCI-H226 lung, 15.3 µM; in the assay with MOLT-4 leukemia, 2.67 µM. In addition, the TGI came to 2.27 µM with IGROV1 ovarian; 1.98 µM in the assay on LOX IMVI melanoma; 1.61 µM with SW-620 colon; 0.428 µM with HL-60(TB) leukemia; 1.54 µM in the assay with PC-3 prostate; 0.488 µM in the assay on COLO 205 colon. The compound also showed a TGI in the assay with NCI-H522 lung of 0.619 µM.

Take `CCOC(=O)CN1C(=O)c2c(c(C)n(-c3ccccc3)c2C)C1=O`: the TGI in the assay on CCRF-CEM leukemia, in the assay on NCI/ADR-RES ovarian, with SNB-75 CNS, in the assay with MDA-N, in the assay on MDA-MB-435 and in the assay with SN12C renal was greater than 100 µM in each case. Also, the TGI in the assay with MALME-3M melanoma, in the assay with A549 NSCLC, with NCI-H23 lung, in the assay on 786-0 renal, with NCI-H226 lung and in the assay with MOLT-4 leukemia was greater than 100 µM each time. The TGI in the assay on IGROV1 ovarian, in the assay on SW-620 colon, in the assay on HL-60(TB) leukemia, with PC-3 prostate, with COLO 205 colon and in the assay with NCI-H522 lung was greater than 100 µM in each case. Besides, the TGI in the assay on HT29 colon is greater than 100 µM.

In the case of `CCOC(=O)C1(C(N)=O)C(=O)c2ccncc2C1=O` (stereo not drawn), the TGI in the assay on CCRF-CEM leukemia, in the assay on NCI/ADR-RES ovarian, in the assay with SNB-75 CNS, in the assay with MDA-N, with MDA-MB-435 and in the assay with SN12C renal was greater than 100 µM each time. In addition, the TGI in the assay on MALME-3M melanoma, with A549 NSCLC, in the assay with NCI-H23 lung, in the assay on 786-0 renal, with NCI-H226 lung and with IGROV1 ovarian was greater than 100 µM throughout. Moreover, the TGI with LOX IMVI melanoma, with SW-620 colon, with HL-60(TB) leukemia, with PC-3 prostate, with COLO 205 colon and in the assay on NCI-H522 lung was greater than 100 µM each time. The compound further came in with a TGI in the assay with HT29 colon greater than 100 µM.

The values are drawn from PubChem BioAssay (NCI).
